Assay: Ready-to-use formulation stability at 2-8° C., 5 mg/mL (R,R)-pyrodach-2 in 10 mM Potassium Phosphate Buffer at pH 7.2, 10 mL vials
Format: physicochemical
Experimental: A scalable and commercially viable process for the manufacture of a ready-to-use formulation of (R,R)-pyrodach-2 in 10 mM buffer adjusted to a pH of 7.0-7.5 comprises the steps of: a) preparing a 10 mM aqueous solution of buffer; b) adding sufficient hydroxide base to effect neutralization of the added (R,R)-pyrodach-2 to reach a pH of about 7; c) adding (R,R)-pyrodach-2 and allowing it to dissolve; d) if necessary adding additional hydroxide to adjust the pH into a range of about 7.0-7.5; and e) filtering the solution under sterile conditions, filling the solution into glass vials, and covering it with a stopper and/or a cap. Stability data on two large batches of 5 mg/mL (R,R)-pyrodach-2 in 10 mM potassium phosphate buffer were generated. One such batch at pH=7.2 was evaluated at both 25° C./60% RH and refrigerated (2-8° C.) conditions, with data summarized in Table 4 and Table 5, respectively. […] Similar observations have been made for the ready-to-use liquid formulation at pH7.4, as illustrated in Table 6 and Table 7.
• Transfer 4564.6 mg±0.5 mg of potassium phosphate dibasic, trihydrate to a 2-L volumetric flask. • Fill flask to approximately 75% volume with water, swirl as needed to dissolve all solids. • Volumetrically transfer 32.0 mL of 1N KOH to flask. • Dilute flask to volume with water and mix well. • Record pH of final solution. This is the diluent. • Transfer 7653.1 mg±0.5 mg of (R,R)-pyrodach-2 to a compounding vessel. • Transfer 1500 mL of the diluent to the vessel and stir to dissolve solids. • Record pH of final solution. • Pass entire solution through a 0.22 μm sterile filter membrane into a sterile collection vessel. • Calculate (R,R)-pyrodach-2 solution concentration
To a […] glass beaker equipped with mechanical mixer was add 24645.5 g of sterile water for injection. With agitation 47.03 gm of dibasic potassium phosphate USP was added and the solids allowed to dissolve. To the stirred solution was added 253.8 gm of 1.00 N potassium hydroxide. Sterile water for injection USP (900.0 gm) was used as a rinse to facilitate both additions. With vigorous agitation, (R,R)-pyrodach-2 (201.87 gm) was slowly added and agitation continued until all of the solids dissolved. Sterile water for injection USP (900.0 gm) was used as a rinse to facilitate the addition. The pH was determined to be 6.7. A total of 85 mL of 1.00 N potassium hydroxide was added in 5.0 mL aliquots to adjust the pH to 7.3. The solution was sterile filtered through 0.22μ Millipore Millipack filter and aseptically filled, 10 ml top a vial in 10 mL in 10 cc Wheaton clear molded vails, stoppered with a 20 mm stopper and crimp seal capped.

In the case of `O=P1(O)OP(=O)(O)[O][Pt]2([NH][C@@H]3CCCC[C@H]3[NH]2)[O]1` (stereo partly drawn) [(R,R)-pyrodach-2, (R,R)-trans-1,2-cyclohexanediamine-(dihydrogenpyrophosphato)platinum(II)], the “(DACH) Pt-diaquo (~RRT 0.3)” value (1 Month) is reported as 0.17%, the “(DACH) Pt-monoaquo (~RRT 0.7)” value (1 Month) is reported as 0.84% and the “Assay (Potency)” value (1 Month) is reported as 97.7%. For the same compound, the “PT-112 Dimer (~RRT 4.0)” value (1 Month) was 0.21%, the “RRT 0.56” value (1 Month) was 0.11% and the “Total Related Substances” value (1 Month) was 1%. For the same compound, the pH (1 Month) was 7.2, the “(DACH) Pt-diaquo (~RRT 0.3)” value (2 Month) was 0.09% and the “(DACH) Pt-monoaquo (~RRT 0.7)” value (2 Month) was 0.91%. For the same compound, the “Assay (Potency)” value (2 Month) was 100.1%, the “PT-112 Dimer (~RRT 4.0)” value (2 Month) was 0.25% and the “RRT 0.56” value (2 Month) was 0.10%. The “RRT 0.68” value (2 Month) was 0.06%, the “Total Related Substances” value (2 Month) was 1% and the pH (2 Month) was 7.2. The “(DACH) Pt-diaquo (~RRT 0.3)” value (3 Month) was 0.18%, the “(DACH) Pt-monoaquo (~RRT 0.7)” value (3 Month) was 0.82% and the “Assay (Potency)” value (3 Month) was 98.2%. The “PT-112 Dimer (~RRT 4.0)” value (3 Month) was 0.31%, the “RRT 0.56” value (3 Month) was 0.12% and the “RRT 0.68” value (3 Month) was 0.05%. The “RRT 3.1-3.2” value (3 Month) was 0.08%, the “Total Related Substances” value (3 Month) was 2% and the pH (3 Month) was 7.2. For the same compound, the “(DACH) Pt-diaquo (~RRT 0.3)” value (4 Month) was 0.13%, the “(DACH) Pt-monoaquo (~RRT 0.7)” value (4 Month) was 0.88% and the “Assay (Potency)” value (4 Month) was 98.6%. The “PT-112 Dimer (~RRT 4.0)” value (4 Month) was 0.27%, the “RRT 0.50” value (4 Month) was 0.05% and the “RRT 0.56” value (4 Month) was 0.13%. The “RRT 3.1-3.2” value (4 Month) was 0.07%, the “Total Related Substances” value (4 Month) was 2% and the pH (4 Month) was 7.3. The “(DACH) Pt-diaquo (~RRT 0.3)” value (6 Month) was 0.18%, the “(DACH) Pt-monoaquo (~RRT 0.7)” value (6 Month) was 0.91% and the “Assay (Potency)” value (6 Month) was 98.4%. The “PT-112 Dimer (~RRT 4.0)” value (6 Month) was 0.28%, the “RRT 0.56” value (6 Month) was 0.12% and the “RRT 0.68” value (6 Month) was 0.05%. The “RRT 3.1-3.2” value (6 Month) was 0.10%, the “Total Related Substances” value (6 Month) was 2% and the pH (6 Month) was 7.3. The “Particulate Matter (Light Obscuration)” value (6 Month, first value) was 150 particles per container, the “Particulate Matter (Light Obscuration)” value (6 Month, second value) was 8 particles particles per container and the “(DACH) Pt-diaquo (~RRT 0.3)” value (9 Month) was 0.14%. For the same compound, the “(DACH) Pt-monoaquo (~RRT 0.7)” value (9 Month) was 1.05%, the “Assay (Potency)” value (9 Month) was 97.8% and the “PT-112 Dimer (~RRT 4.0)” value (9 Month) was 0.29%. For the same compound, the “RRT 0.56” value (9 Month) was 0.16%, the “RRT 0.68” value (9 Month) was 0.06% and the “RRT 3.1-3.2” value (9 Month) was 0.10%. For the same compound, the “Total Related Substances” value (9 Month) was 2%, the pH (9 Month) was 7.2 and the “(DACH) Pt-diaquo (~RRT 0.3)” value (12 Month) was 0.20%. For the same compound, the “(DACH) Pt-monoaquo (~RRT 0.7)” value (12 Month) was 1.02%, the “Assay (Potency)” value (12 Month) was 97.8% and the “PT-112 Dimer (~RRT 4.0)” value (12 Month) was 0.29%. The “RRT 0.50” value (12 Month) was 0.06%, the “RRT 0.56” value (12 Month) was 0.16% and the “RRT 0.68” value (12 Month) was 0.10%. The “RRT 3.1-3.2” value (12 Month) was 0.16%, the “Total Related Substances” value (12 Month) was 2% and the pH (12 Month) was 7.2. The “Particulate Matter (Light Obscuration)” value (12 Month, first value) was 236 particles per container, the “Particulate Matter (Light Obscuration)” value (12 Month, second value) was 4 particles particles per container and the “(DACH) Pt-diaquo (~RRT 0.3)” value (15 Month) was 0.15%. The “(DACH) Pt-monoaquo (~RRT 0.7)” value (15 Month) was 0.92%, the “Assay (Potency)” value (15 Month) was 98.7% and the “PT-112 Dimer (~RRT 4.0)” value (15 Month) was 0.29%. The “RRT 0.50” value (15 Month) was 0.07%, the “RRT 0.56” value (15 Month) was 0.19% and the “RRT 0.68” value (15 Month) was 0.06%. For the same compound, the “RRT 3.1-3.2” value (15 Month) was 0.22%, the “Total Related Substances” value (15 Month) was 2% and the pH (15 Month) was 7.2. For the same compound, the “(DACH) Pt-diaquo (~RRT 0.3)” value (18 Month) was 0.15%, the “(DACH) Pt-monoaquo (~RRT 0.7)” value (18 Month) was 0.93% and the “Assay (Potency)” value (18 Month) was 100.3%. For the same compound, the “PT-112 Dimer (~RRT 4.0)” value (18 Month) was 0.31%, the “RRT 0.50” value (18 Month) was 0.07% and the “RRT 0.56” value (18 Month) was 0.19%. For the same compound, the “RRT 0.68” value (18 Month) was 0.07%, the “RRT 3.1-3.2” value (18 Month) was 0.19% and the “RRT 3.54” value (18 Month) was 0.05%. The “Total Related Substances” value (18 Month) was 2%, the pH (18 Month) was 7.3 and the “(DACH) Pt-diaquo (~RRT 0.3)” value (24 Month) was 0.17%. The “(DACH) Pt-monoaquo (~RRT 0.7)” value (24 Month) was 0.82%, the “Assay (Potency)” value (24 Month) was 97.1% and the “PT-112 Dimer (~RRT 4.0)” value (24 Month) was 0.31%. For the same compound, the “RRT 0.46” value (24 Month) was 0.06%, the “RRT 0.50” value (24 Month) was 0.22% and the “RRT 0.56” value (24 Month) was 0.09%. The “RRT 0.68” value (24 Month) was 0.05%, the “RRT 3.1-3.2” value (24 Month) was 0.22% and the “RRT 3.54” value (24 Month) was 0.11%. The “Total Related Substances” value (24 Month) was 2%, the pH (24 Month) was 7.2 and the “Particulate Matter (Light Obscuration)” value (24 Month, first value) was 41 particles per container. For the same compound, the “Particulate Matter (Light Obscuration)” value (24 Month, second value) was 12 particles per container, the “(DACH) Pt-diaquo (~RRT 0.3)” value (30 Month) was 0.14% and the “(DACH) Pt-monoaquo (~RRT 0.7)” value (30 Month) was 0.96%. The “Assay (Potency)” value (30 Month) was 98.2%, the “PT-112 Dimer (~RRT 4.0)” value (30 Month) was 0.33% and the “RRT 0.50” value (30 Month) was 0.17%. The “RRT 0.56” value (30 Month) was 0.19%, the “RRT 0.68” value (30 Month) was 0.08% and the “RRT 3.1-3.2” value (30 Month) was 0.31%. The “RRT 3.54” value (30 Month) was 0.10%, the “Total Related Substances” value (30 Month) was 2% and the pH (30 Month) was 7.2. For the same compound, the “Particulate Matter (Light Obscuration)” value (30 Month, first value) was 62 particles per container, the “Particulate Matter (Light Obscuration)” value (30 Month, second value) was 6 particles particles per container and the “(DACH) Pt-diaquo (~RRT 0.3)” value (36 Month) was 0.12%. For the same compound, the “(DACH) Pt-monoaquo (~RRT 0.7)” value (36 Month) was 1.16%, the “Assay (Potency)” value (36 Month) was 97.8% and the “PT-112 Dimer (~RRT 4.0)” value (36 Month) was 0.36%. The “RRT 0.46” value (36 Month) was 0.07%, the “RRT 0.50” value (36 Month) was 0.23% and the “RRT 0.56” value (36 Month) was 0.11%. For the same compound, the “RRT 0.68” value (36 Month) was 0.09%, the “RRT 3.1-3.2” value (36 Month) was 0.30% and the “RRT 3.54” value (36 Month) was 0.14%. For the same compound, the “Total Related Substances” value (36 Month) was 3%, the pH (36 Month) was 7.2 and the “(DACH) Pt-diaquo (~RRT 0.3)” value (Initial) was 0.16%. The “(DACH) Pt-monoaquo (~RRT 0.7)” value (Initial) was 0.98%, the “Assay (Potency)” value (Initial) was 99.8% and the “PT-112 Dimer (~RRT 4.0)” value (Initial) was 0.19%. The “RRT 0.56” value (Initial) was 0.13%, the “RRT 0.68” value (Initial) was 0.05% and the “Total Related Substances” value (Initial) was 2%. For the same compound, the pH (Initial) was 7.2, the “Particulate Matter (Light Obscuration)” value (Initial, first value) was 219 particles per container and the “Particulate Matter (Light Obscuration)” value (Initial, second value) was 11 particles per container.
